Values of other authors, collected in patent US7674912B2, “Pro-drugs of N-thiazol-2-yl-benzamide derivatives” (priority 2005, dated 2010).
Read-outs that look alike come from different tables or passages of the source.

What was measured:
[1] = system: unilateral 6-OHDA (6-hydroxydopamine) lesioned mice and rats; conditions: elicited by a subthreshold dose of levodopa, unilateral 6-OHDA lesioned mice and rats
mice = conditions: for total immobility time: mouse tail suspension test
[2] = system: non-human primates treated with MPTP
[3] = system: MPTP treated mice and 6-OHDA-lesioned rats
[4] = mice previously screened for having high immobility time

| Structure (SMILES) | contralateral rotations [1] | total immobility time (mice) | dyskinesias ([2]; in vivo) | motor impairment induced by MPTP ([2]; non-human primates) | functional loss of dopaminergic nerve terminals in the striatum [3] | gliosis induced around degenerating neurons [3] | immobility (mice; [4]) | immobility (mice; mice selectively bred for their helplessness) |
| --- | --- | --- | --- | --- | --- | --- | --- | --- |
| CCn1c(=O)c2c(nc(/C=C/c3ccc(OC)c(OC)c3)n2C)n(CC)c1=O [KW-6002, 8-[(1E)-2-(3,4-dimethoxyphenyl)ethenyl]-1,3-diethyl-3,7-dihydro-7-methyl-1H-purine-2,6-dione] | enhance contralateral rotations | reduced the total immobility time | without causing dyskinesias | significantly improves motor impairment | prevented functional loss of dopaminergic nerve terminals in the striatum | prevented gliosis |  |  |
| Nc1nc2c(cnn2CCc2ccccc2)c2nc(-c3ccco3)nn12 [SCH58261, 2-(2-furanyl)-7-(2-phenylethyl)-7H-pyrazolo[4,3-e][1,2,4]triazolo[1,5-c]pyrimidin-5-amine] | enhance contralateral rotations | reduced the total immobility time |  |  |  |  | reduce immobility | reduced immobility |
| Nc1nc(NCCc2ccc(O)cc2)nc2nc(-c3ccco3)nn12 [ZM241385, 4-(2-[7-amino-2-(2-furyl)[1,2,4]triazolo[2,3-a][1,3,5]triazin-5-ylamino]-ethyl)phenol] |  |  |  |  |  |  | reduce immobility |  |
